# According to US9708259B2 (Hoffmann-La Roche Inc., priority 2013, dated 2017):
# Positions count from the first letter of the chain named. pEC50: −log10 of the molar value. Like-named read-outs stand apart in the source and are kept apart here.
# Assays:
# human M1 = biological target: T1, human M1 (Homo sapiens, UniProt P11229); assay: M1 PAM assay (FLIPR intracellular calcium), human M1; assay type: cell-based
# T1 construct: expressed in transfected cells; host or cells: CHO cells
# T1 sequence (P11229 1-460): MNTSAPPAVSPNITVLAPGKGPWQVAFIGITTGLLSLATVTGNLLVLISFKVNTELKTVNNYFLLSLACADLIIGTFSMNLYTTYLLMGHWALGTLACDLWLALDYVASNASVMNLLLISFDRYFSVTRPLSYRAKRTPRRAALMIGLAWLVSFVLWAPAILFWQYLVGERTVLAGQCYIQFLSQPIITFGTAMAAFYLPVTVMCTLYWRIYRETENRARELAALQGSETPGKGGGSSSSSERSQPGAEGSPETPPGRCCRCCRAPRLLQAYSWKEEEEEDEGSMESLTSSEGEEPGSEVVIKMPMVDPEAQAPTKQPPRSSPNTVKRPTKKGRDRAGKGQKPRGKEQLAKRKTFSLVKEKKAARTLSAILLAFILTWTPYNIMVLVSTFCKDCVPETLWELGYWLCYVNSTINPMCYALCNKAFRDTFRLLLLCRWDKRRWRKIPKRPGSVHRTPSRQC
# Protocol: The assay study the effect of several concentrations of test compounds on basal or acetylcholine-stimulated Ca^2+ levels using FLIPR.
# CHO human M1 are plated the day before the experiments at 2×10^5 cells/ml in PDL BioCoat 96 well black/clear plate (Becton 35 4640). The cells are grown at 37° C. and 5% CO2 in the following medium: F12 Nut Mix (Gibco 21765), 10% FCS heat inactivated (GIBCO 16000-044), 1% Pen Strep (Gibco,15140) and 200 μg/ml Geneticin (Gibco 11811). On the day of the experiment, the medium was removed and replaced by […] of dye loading buffer containing Hanks Balanced Salt solution (HBSS, 14065-049, Gibco) with 20 mM HEPES (Gibco 15630-056), 2 mM Probenicid (Sigma P8761), […] ester (Molecular Probes F-14202), 10% Pluronic acid Molecular Probes P-3000) pH=7.4 and incubated at 37° C. After 60 minutes extracellular dye was removed and the cells were washed five times with FLIPR buffer containing HBSS (Gibco 14065-049) with 20 mM HEPES (Gibco, 15630-056), 2 mM Probenicid (Sigma P8761) pre-warmed at 37° C. using and Ebml cell washer leaving […] of FLIPR buffer in each well. The cell plate and the diluted compounds (1% DMSO final concentration) are placed on the platform of the FLIPR and the door closed. A signal test to check background fluorescence and basal fluorescence signal is performed. Laser intensity is adjusted if necessary. Two minutes preincubation with the diluted test compounds is provide to determine any agonist activity on the M1 receptor by comparison to 30 nM Acetylcholine control. In order to determine any modulator activity the diluted compounds were added to cells and after two minutes preincubation, the EC20 of acetylcholine is added followed by another two minutes preincubation before the measurement of intracellular Ca^2+ with a FLIPR (Molecular Devices).
# ratM1 = biological target: T2, ratM1 (Rattus norvegicus, UniProt P08482); assay: M1 PAM assay (FLIPR intracellular calcium), rat M1; assay type: cell-based
# T2 construct: expressed in transfected cells; host or cells: CHO cells (stated generally for the assay, not specifically for rat M1)
# T2 sequence (P08482 1-460): T1 sequence (P11229 1-460) with A5V, T254S, P309S, R320K, A337G, I413V
# [1] = CHO human M1 cells, FLIPR Ca2+, with EC20 of acetylcholine, first value of the cell, read-out: hM1 EC50
# [2] = rat M1, FLIPR Ca2+, second value of the cell, read-out: ratM1 EC50
SMILES,pEC50 (human M1; [1]),pEC50 (ratM1; [2]),pEC50 (human M1),pEC50 (ratM1)
"Cc1ccn(-c2ccc(Cn3cc(C(=O)N[C@H]4CCCC[C@@H]4O)c4c(F)c(F)ccc43)cc2)n1 [Example 61, 4,5-difluoro-N-((1S,2S)-2-hydroxycyclohexyl)-1-(4-(3-methyl-1H-pyrazol-1-yl)benzyl)-1H-indole-3-carboxamide]",6.46,6.29,,
"COc1ccc(F)c2c(C(=O)N[C@H]3CCOC[C@@H]3O)cn(Cc3ccc(-c4cnn(C)c4)cc3)c12 [Example 150, 4-fluoro-N-((3R,4S)-3-hydroxytetrahydro-2H-pyran-4-yl)-7-methoxy-1-(4-(1-methyl-1H-pyrazol-4-yl)benzyl)-1H-indole-3-carboxamide]",7.30,7.47,,
"Cn1cc(-c2ccc(Cn3cc(C(=O)N[C@H]4CCCC[C@@H]4O)c4c(F)c(F)c(F)c(F)c43)cc2)cn1 [Example 53, 4,5,6,7-tetrafluoro-N-((1S,2S)-2-hydroxycyclohexyl)-1-(4-(1-methyl-1H-pyrazol-4-yl)benzyl)-1H-indole-3-carboxamide]",7.36,7.32,,
"Cn1cc(-c2ccc(Cn3cc(C(=O)NC4CCOCC4O)c4c(F)c(F)c(F)c(F)c43)cc2)cn1 (single isomer, unassigned) [Example 62, 4,5,6,7-Tetrafluoro-N-((3S,4R) or (3R,4S))-3-hydroxytetrahydro-2H-pyran-4-yl)-1-(4-(1-methyl-1H-pyrazol-4-yl)benzyl)-1H-indole-3-carboxamide]",6.36,6.25,,
"Cc1cn(-c2ccc(Cn3cc(C(=O)NC4CCOCC4)c4c(F)cccc43)cc2)cn1 [Example 67, 4-fluoro-1-(4-(4-methyl-1H-imidazol-1-yl)benzyl)-N-(tetrahydro-2H-pyran-4-yl)-1H-indole-3-carboxamide]",7.08,6.74,,
"Cn1ncc2cc(Cn3cc(C(=O)NC4CCOCC4)c4c(F)ccc(F)c43)ccc21 [Example 94, 4,7-difluoro-1-((1-methyl-1H-indazol-5-yl)methyl)-N-(tetrahydro-2H-pyran-4-yl)-1H-indole-3-carboxamide]",,,7.18,6.85
"O=C(N[C@H]1CCCC[C@@H]1O)c1cn(Cc2ccc(-c3cnco3)cc2)c2cccc(F)c12 [Example 137, 4-fluoro-N-((1S,2S)-2-hydroxycyclohexyl)-1-(4-(oxazol-5-yl)benzyl)-1H-indole-3-carboxamide]",8.05,7.47,,
"COc1ccc(F)c2c(C(=O)NC3CCOCC3)cn(Cc3ccc4c(cnn4C)c3)c12 [Example 154, 4-fluoro-7-methoxy-1-((1-methyl-1H-indazol-5-yl)methyl)-N-(tetrahydro-2H-pyran-4-yl)-1H-indole-3-carboxamide]",,,6.57,6.08
"Cn1cc(-c2ccc(Cn3nc(C(=O)N[C@H]4CCCC[C@@H]4O)c4c(F)ccc(F)c43)cn2)cn1 [Example 75, 4,7-difluoro-N-((1S,2S)-2-hydroxycyclohexanol)-1-((6-(1-methyl-1H-pyrazol-4-yl)yridine-3-yl)methyl)-1H-indazole-3-carboxamide]",7.40,7.34,,
"O=C(N[C@H]1CCCC[C@@H]1O)c1cn(Cc2ccc(-c3cncnc3)cc2)c2cccc(F)c12 [Example 158, 4-Fluoro-N-((1S,2S)-2-hydroxycyclohexyl)-1-(4-(pyrimidin-5-yl)benzyl)-1H-indole-3-carboxamide]",7.64,7.21,,
"CNC(=O)c1ccc(Cn2cc(C(=O)NC3CCCC3)c3c(F)cccc32)cc1 [Example 113, N-cyclopentyl-4-fluoro-1-[[4-(methylcarbamoyl)phenyl]methyl]indole-3-carboxamide]",7.47,7.11,,
"CNC(=O)c1ccc(Cn2cc(C(=O)N[C@H]3CCCC[C@@H]3O)c3c(F)cccc32)cc1 [Example 59, 4-fluoro-N-((1S,2S)-2-hydroxycyclohexyl)-1-(4-(methylcarbamoyl)benzyl)-1H-indole-3-carboxamide]",8.36,8.36,,
"O=C(N[C@H]1CCOC[C@@H]1O)c1cn(Cc2ccc(-n3cncn3)nc2)c2cccc(F)c12 [Example 78, 1-((6-(1H-1,2,4-triazol-1-yl)yridine-3-yl)methyl)-4-fluoro-N-((3R,4S)-3-hydroxytetrahydro-2H-pyran-4-yl)-1H-indole-3-carboxamide]",6.28,6.14,,
"Cn1cc(-c2ccc(Cn3cc(C(=O)N[C@H]4CCOC[C@@H]4O)c4c(F)c(F)c(F)c(F)c43)c(F)c2)cn1 (single isomer, unassigned) [Example 64, 4,5,6,7-Tetrafluoro-1-(2-fluoro-4-(1-methyl-1H-pyrazol-4-yl)benzyl)-N-((3R,4S) or (3S,4R))-3-hydroxytetrahydro-2H-pyran-4-yl)-1H-indole-3-carboxamide]",7.26,7.10,,
"Cn1cc(-c2ccc(Cn3nc(C(=O)N[C@H]4CCCC[C@@H]4O)c4c(F)ccc(F)c43)c(F)c2)cn1 [Example 72, 4,7-difluoro-1-(2-fluoro-4-(1-methyl-1H-pyrazol-4-yl)benzyl)-N-((1S,2S)-2-hydroxycyclohexyl)-1H-indazole-3-carboxamide]",7.37,6.88,,
"CNC(=O)c1ccc(Cn2cc(C(=O)NC3CCCOC3)c3c(F)cccc32)cc1 (stereo not drawn) [Example 122, 4-fluoro-1-[[4-(methylcarbamoyl)phenyl]methyl]-N-(oxan-3-yl)indole-3-carboxamide]",7.21,6.81,,
"CNC(=O)c1ccc(Cn2cc(C(=O)NC3CCOCC3)c3c(F)cccc32)c(F)c1 [Example 164, 4-Fluoro-1-(2-fluoro-4-(methylcarbamoyl)benzyl)-N-(tetrahydro-2H-pyran-4-yl)-1H-indole-3-carboxamide]",7.32,7.06,,
"Cn1cc(-c2ccc(Cn3cc(C(=O)N[C@H]4CCCC[C@@H]4O)c4c(F)ccc(C5CC5)c43)cc2)cn1 [Example 105, 7-cyclopropyl-4-fluoro-N-((1S,2S)-2-hydroxycyclohexyl)-1-(4-(1-methyl-1H-pyrazol-4-yl)benzyl)-1H-indole-3-carboxamide]",6.54,6.20,,
"COc1ccc(F)c2c(C(=O)N[C@H]3CCOC[C@@H]3O)cn(Cc3ccc(-c4cnn(C)c4)cc3F)c12 [Example 153, 4-fluoro-1-(2-fluoro-4-(1-methyl-1H-pyrazol-4-yl)benzyl)-N-((3R,4S)-3-hydroxytetrahydro-2H-pyran-4-yl)-7-methoxy-1H-indole-3-carboxamide]",7.25,7.25,,
"CNC(=O)c1ccc(Cn2cc(C(=O)NC3CCCC(F)(F)C3)c3c(F)cccc32)cc1F (stereo not drawn) [Example 130, N-(3,3-difluorocyclohexyl)-4-fluoro-1-(3-fluoro-4-(methylcarbamoyl)benzyl)-1H-indole-3-carboxamide]",7.47,7.24,,
"O=C(N[C@H]1CCCC[C@@H]1O)c1cn(Cc2ccc(F)c(F)c2)c2cccc(F)c12 [Example 41, 1-(3,4-difluorobenzyl)-4-fluoro-N-((1S,2S)-2-hydroxycyclohexyl)-1H-indole-3-carboxamide]",,,6.66,6.34
